Results taken from patent US10258039B2, “Substituted pyrazolylpyrazole derivative and use of same as herbicide” (KYOYU AGRI CO., LTD., priority 2015, dated 2019).

Tests used:
Format in all cases: in vivo
Monochoria vaginalis = test: Paddy herbicidal activity test; conditions: irrigated paddy pot, 30 days, 30° C.
Procedure: (§1) 1. Paddy Herbicidal Activity Test
(§2) Rice paddy soil was filled into a 1/10000 are pot followed by the addition of suitable amounts of water and chemical fertilizer, kneading, seeding with Echinochloa crus-galli, Monochoria vaginalis and Scirpus juncoides and maintaining in an irrigated state at a water depth of 3 cm.
(§3) Wettable powders of Target Compound (I) shown in. Table 1 prepared in compliance with the preparation examples were diluted with a suitable amount of water, rice plants in the 2.0 leaf stage were transplanted during 3.5 leaf stage of Echinochloa crus-galli, and treated by dropping in chemical in the prescribed amount per 10 are using a pipette.
(§4) After treating for 30 days in a glass greenhouse at an average atmospheric temperature of 30° C., the herbicidal efficacy thereof was investigated.
(§5) Evaluation of herbicidal efficacy was carried out by comparing growth inhibition rate (%) with an untreated group, while evaluation of phytotoxicity was carried out by comparing growth inhibition rate (%) with the state of a complete eradication group, and were evaluated at 11 levels indicated below.

Scirpus juncoides = test: Paddy herbicidal activity test; conditions: irrigated paddy pot, 30 days, 30° C.
Procedure: as §1, §2, §3, §4, §5

Echinochloa crus-galli = test: Paddy herbicidal activity test; conditions: irrigated paddy pot, treated at 3.5 leaf stage of Echinochloa crus-galli, 30 days, 30° C.
Procedure: as §1, §2, §3, §4, §5

Oryza sativa = test: Paddy herbicidal activity test, phytotoxicity to transplanted rice; conditions: rice transplanted at 2.0 leaf stage, 30 days, 30° C.
Procedure: as §1, §2, §3, §4, §5

Digitaria ciliaris [1] = test: Weed foliar treatment test (Test 4, 4.0 to 5.0 leaf stage); conditions: 10g a.i./10a; foliar spray at 4.0 to 5.0 leaf stage of Digitaria ciliaris (plant height 10 cm to 15 cm); 20 days, 25° C.
Procedure: (§6) 4. Weed Foliar Treatment Test
(§7) Field soil was filled into a 1/4500 are pot followed by seeding with Digitaria ciliaris and Galinsoga parviflora, covering with soil and cultivating in a glass greenhouse at an average atmospheric temperature of 25° C.
(§8) Wettable powders of Target Compound (I) shown in Table 1 prepared in compliance with the preparation examples were diluted with water to the prescribed amount of chemical and uniformly sprayed onto the weeds using 100 liters of sprayed water per 10 are when Digitaria ciliaris had grown to the 4.0 to 5.0 leaf stage (plant height: 10 cm to 15 cm).
(§9) After treating for 20 days in a glass greenhouse at an average atmospheric temperature of 25° C., the herbicidal efficacy thereof was investigated.
(§10) Evaluation of herbicidal efficacy was carried out in the same manner as the above-mentioned Test Example 1.

Galinsoga parviflora = test: as above; conditions: 10g a.i./10a; foliar spray at 4.0 to 5.0 leaf stage of Digitaria ciliaris; 20 days, 25° C.
Procedure: as §6, §7, §8, §9, §10

Digitaria ciliaris [2] = test: Farming soil treatment test; conditions: soil surface spray prior to weed growth, 30 days, 30° C.
Procedure: (§11) 2. Farming Soil Treatment Test
(§12) Field soil was filled into a 1/6000 are pot followed by seeding with Digitaria ciliaris, Chenopodium album and Amaranthus retroflexus and covering with soil.
(§13) Wettable powders of compounds of formula (I) shown in Table 1 prepared in compliance with the preparation examples were diluted with water to the prescribed amount of chemical and uniformly sprayed onto each soil surface layer using 100 liters of sprayed water per 10 are prior to weed growth following seeding.
as §4, §10

Amaranthus retroflexus [3] = test: Farming soil treatment test; conditions: soil surface spray prior to weed growth, 30 days, 30° C.
Procedure: as §11, §12, §13, §4, §10

Chenopodium album [4] = test: Farming soil treatment test; conditions: soil surface spray prior to weed growth, 30 days, 30° C.
Procedure: as §11, §12, §13, §4, §10

Digitaria ciliaris [5] = test: Weed foliar treatment test (Test 3, 1.0 to 2.0 leaf stage); conditions: foliar spray at 1.0 to 2.0 leaf stage of Digitaria ciliaris, 3 weeks, 25° C.
Procedure: (§14) 3. Weed Foliar Treatment Test
(§15) Soil was filled into a 1/6000 are pot followed by seeding with Digitaria ciliaris, Chenopodium album and Amaranthus retroflexus, covering with soil, and cultivating in a glass greenhouse at an average atmospheric temperature of 25° C.
(§16) Wettable powders of Target Compound (I) shown in Table 1 prepared in compliance with the preparation examples were diluted with water to the prescribed amount of chemical and uniformly sprayed onto the weeds using 150 liters of sprayed water per 10 are when Digitaria ciliaris had grown to the 1.0 to 2.0 leaf stage.
(§17) After treating for 3 weeks in a glass greenhouse at an average atmospheric temperature of 25° C., the herbicidal efficacy thereof was investigated.
as §10

Amaranthus retroflexus [6] = test: as above; conditions: foliar spray at 1.0 to 2.0 leaf stage of Digitaria ciliaris, 3 weeks, 25° C.
Procedure: as §14, §15, §16, §17, §10

Chenopodium album [7] = test: as above; conditions: foliar spray at 1.0 to 2.0 leaf stage of Digitaria ciliaris, 3 weeks, 25° C.
Procedure: as §14, §15, §16, §17, §10

## N#Cc1cnn(-c2nn3c(c2Cl)CCCC3)c1NC(=O)C1CC1 [Control agent 4.190, reference compound]
Monochoria vaginalis; 1g a.i./10a
  herbicidal efficacy, Monochoria vaginalis: 4 (4: 40% to less than 50%)
Monochoria vaginalis; 5g a.i./10a
  herbicidal efficacy, Monochoria vaginalis: 5 (5: 50% to less than 60%)
Scirpus juncoides; 1g a.i./10a
  herbicidal efficacy, Scirpus juncoides: 4 (4: 40% to less than 50%)
Scirpus juncoides; 5g a.i./10a
  herbicidal efficacy, Scirpus juncoides: 5 (5: 50% to less than 60%)
Echinochloa crus-galli; 1g a.i./10a
  herbicidal efficacy, Echinochloa crus-galli: 6 (6: 60% to less than 70%)
Echinochloa crus-galli; 5g a.i./10a
  herbicidal efficacy, Echinochloa crus-galli: 6 (6: 60% to less than 70%)
Oryza sativa; 1g a.i./10a
  phytotoxicity, Oryza sativa: 8 (8: 80% to less than 90%)
Oryza sativa; 5g a.i./10a
  phytotoxicity, Oryza sativa: 9 (9: 90% to less than 100%)
Digitaria ciliaris [1]
  herbicidal efficacy, Digitaria ciliaris: 2 (2: 20% to less than 30%)
Galinsoga parviflora
  herbicidal efficacy, Galinsoga parviflora: 4 (4: 40% to less than 50%)
Digitaria ciliaris [2]; 5g a.i./10a
  herbicidal efficacy, Digitaria ciliaris: 3 (3: 30% to less than 40%)
Digitaria ciliaris [2]; 10g a.i./10a
  herbicidal efficacy, Digitaria ciliaris: 4 (4: 40% to less than 50%)
Amaranthus retroflexus [3]; 5g a.i./10a
  herbicidal efficacy, Amaranthus retroflexus: 4 (4: 40% to less than 50%)
Amaranthus retroflexus [3]; 10g a.i./10a
  herbicidal efficacy, Amaranthus retroflexus: 4 (4: 40% to less than 50%)
Chenopodium album [4]; 5g a.i./10a
  herbicidal efficacy, Chenopodium album: 5 (5: 50% to less than 60%)
Chenopodium album [4]; 10g a.i./10a
  herbicidal efficacy, Chenopodium album: 6 (6: 60% to less than 70%)
Digitaria ciliaris [5]; 5g a.i./10a
  herbicidal efficacy, Digitaria ciliaris: 5 (5: 50% to less than 60%)
Digitaria ciliaris [5]; 10g a.i./10a
  herbicidal efficacy, Digitaria ciliaris: 6 (6: 60% to less than 70%)
Amaranthus retroflexus [6]; 5g a.i./10a
  herbicidal efficacy, Amaranthus retroflexus: 4 (4: 40% to less than 50%)
Amaranthus retroflexus [6]; 10g a.i./10a
  herbicidal efficacy, Amaranthus retroflexus: 6 (6: 60% to less than 70%)
Chenopodium album [7]; 5g a.i./10a
  herbicidal efficacy, Chenopodium album: 5 (5: 50% to less than 60%)
Chenopodium album [7]; 10g a.i./10a
  herbicidal efficacy, Chenopodium album: 6 (6: 60% to less than 70%)
